For data set [1] the following is noted: human urine, after racemic MDMA; cited from earlier work.
Data set [2] deals with BTBR mice. As to the kind of experiment: Radiotelemetry of core temperature, BTBR. The class given is in vivo. On the procedure: (§1) The radiotelemetry assay was conducted in adult male C57 and BTBR mice (n=6 per group) in a dedicated testing room where ambient light, sound, and human contact were tightly controlled.
(§2) Prior to surgical implantation of radiotelemetry probes, mice received 3 mg/kg meloxicam (IP), and anesthesia was induced with 4% inhaled isoflurane and maintained with 1-3% isoflurane (as needed) throughout the procedure at a flow rate of 1.5 litres/minute. The abdominal area of each animal was treated with depilatory cream, then sanitized with 3 alternating scrubs with iodine and alcohol. A rostral-caudal cut approximately 1.5 cm in length was made with sterile skin scissors, providing access to the intraperitoneal cavity. A cylindrical glass-encapsulated radiotelemetry probe (model ER-4000 E-Mitter, Mini Mitter, Bend, OR, USA) was then inserted. These probes measure 15.5 mm×6.5 mm and weigh approximately 1 gram. Incisions were closed (skin layer and muscle layer separately) using reverse cutting 5-0 Vicryl absorbable sutures for the muscle layer and 5-0 nylon suture material for the skin layer. Surgeries were carried out at least 7 days before initiation of experimental conditions, allowing time for incisions to heal and for animals to recover normal body weights. Following surgery, all implanted mice were individually housed in Plexiglas cages within the telemetry room for the duration of all experiments. Implanted transmitters produce activity- and temperature-modulated signals which are sent to a receiver (model ER-4000 Receiver, Mini Mitter Co., Inc.) underneath each cage. Following use, telemetry probes were removed from carcasses, wiped with alcohol swabs, and stored in the disinfectant solution until re-use.
(§3) At least 7 days after surgical implantation of radiotelemetry probes, mice in their individual home cages were placed atop a telemetry energizer/receiver, which powered probes and transmitted their data to an interfaced computer. Upon initiation of an experimental session, the computer collected two data updates from the probes at 5 min intervals: core temperature (in ° C.) on one channel, and locomotor counts (in arbitrary units, depending on the relative position of the probe atop the receiver) on the other. After at least 60 minutes of baseline data collection, mice were removed from their cages, injected with saline or a given dose of a specific drug, then returned to the home cage 24 hours of data collection.
(§4) Food and water were always freely available in the home cage. Mice were injected with ascending doses of a given drug, with at least 48 hours separating doses. Because there are few studies of drug effects in BTBR mice, the first drug dose tested occasionally elicited unexpectedly large locomotor effects in these animals. In these cases, smaller drug doses were tested next, after a washout period of at least one full day.

Data set [3] deals with BTBR mice. As to the kind of experiment: Social novelty preference test, BTBR (autism spectrum disorder model). The class given is in vivo. The note with it: in vivo mice models of autism spectrum disorder (BTBR). Here is the method: (§5) This assay was conducted in adult male C57 and BTBR mice (n=6 per group) in a dedicated conditioning room where ambient light, sound, and human contact were tightly controlled. Social preference chambers consist of two polycarbonate boxes (13.5 cm wide×22.5 cm tall×31.0 cm deep), floored with rough-textured black ABS plastic, and connected to one another by a 1.25″ PVC T-junction. An infrared photobeam emitter/detector array is mounted at each intersection of the T-junction and each preference compartment, and as a mouse traversed the apparatus, it would break the photobeam upon entry to or exit from each preference compartment. Beam breaks started or stopped a counter on an interfaced computer, allowing automated collection of time spent in each compartment. At the end of each test, data were reported as time (in seconds) spent in each compartment, the number of entries into each compartment, and the average time spent in each compartment following an entry. Social preference tests were conducted in an iterative manner, with each test subject completing four distinct phases as described below. Between testing sessions, chambers were sanitized by wiping the insides with a disinfectant product provided by the UAMS Department of Laboratory Animal Medicine. At the end of the week (upon completion of all phases of the procedure), each apparatus was disassembled and all parts were sanitized. No food or water were available during social preference sessions, but were available in the home cage immediately afterwards.
A single social novelty preference session occurred the day after the sociability test, where one compartment contained a wire mesh cup with the same NIH Swiss mouse from the previous day inside (referred to now as the “familiar” mouse) while the other compartment contained a new male NIH Swiss stranger mouse inside the cup which previously contained the dummy mouse during the sociability test. […]

For data set [4], the system named is C57 mice. As to the kind of experiment: Novelty preference test, C57. The class given is in vivo. On the procedure:
as §5
A single novelty preference session occurred the day after the habituation test, where one compartment contained an empty wire mesh cup and the other compartment contained an identical wire mesh cup with a novel dummy mouse inside. The position of the dummy mouse (left or right compartment) was counterbalanced across subjects. Dummy mice were constructed from 2.5″ lengths of white ¾″ PVC pipe, with a zip tie attached to one end (to mimic a tail) and two red dots drawn on the other end (to mimic eyes.) During this session, mice were weighed, administered an injection, and returned to their home cage for a 30 min pretreatment period. Mice were then introduced into the T-junction and allowed to explore both preference compartments for 15 minutes. These tests were conducted as a procedural control to ensure that any observed drug effects were not simply due to enhancement of the innate novelty preference of mice. Novelty preference sessions always occurred on Tuesdays or Wednesdays to prevent any weekend testing.

Data set [5] relates to C57 mice. As to the kind of experiment: Radiotelemetry of core temperature, C57. The class given is in vivo. Here is the method:
as §1, §2, §3, §4

The test system of data set [6] is C57 mice. As to the kind of experiment: Social novelty preference test, C57. The class given is in vivo. Here is the method: as §5
A single social novelty preference session occurred the day after the sociability test, where one compartment contained a wire mesh cup with the same NIH Swiss mouse from the previous day inside (referred to now as the “familiar” mouse) while the other compartment contained a new male NIH Swiss stranger mouse inside the cup which previously contained the dummy mouse during the sociability test. […] The position of the now familiar NIH Swiss mouse (left or right compartment) remained the same for each subject as during the sociability test the day before, thereby counterbalancing the position of the new NIH Swiss stranger mouse across subjects. As before, the new NIH Swiss stranger mice were housed separately from the experimental subjects (C57 and BTBR mice) in the colony facility, and the first time the experimental subjects ever encountered them was when they entered the compartment where they were contained. During this session, mice were weighed, administered the same injection as the day before, and returned to their home cage for a 30 min pretreatment period. Mice were then introduced into the T-junction and allowed to explore both preference compartments for 15 minutes. Social novelty tests always occurred on Thursdays or Fridays to prevent any weekend testing.

Data set [7] concerns C57 mice. As to conditions: mouse, in vivo; for locomotor activity: ip.
Data set [8] relates to BTBR mice. As to the kind of experiment: Social preference procedure: compartment entries (proxy for locomotor stimulant effects), BTBR. The class given is in vivo. On the procedure: as §5
(§6) Quantification of total entries into the preference compartments provided a proxy measurement for locomotor stimulant effects of the various doses of the various test drugs. This established a limit to the drug doses that can be tested in the social preference procedure, as induction of locomotor stimulant effects confounds preference assessments (because mice stop attending to the social stimuli in each compartment and instead spend their time engaged in locomotor behavior.) Motor activity varied across the distinct phases of social preference testing, in part because the habituation session is twice as long (30 minutes) as the novelty, sociability, and social novelty tests (15 minutes each), but also because mice emitted high levels of exploratory behavior in novel environments. Thus, as familiarity with the test apparatus increased over successive exposures to the chambers, the number of entries decreased.
(§7) (Note that entries were collected for every test, but drug effects on entries during earlier phases may be less reliable due to the confounding influence of changing familiarity with the apparatus across phases.)

For data set [9], the system named is BTBR mice. Put plainly: Radiotelemetry of locomotor activity, BTBR. The note with it: 0 to 240 minutes. It is filed as in vivo. Here is the method: as §1, §2, §3, §4
Data set [10] has as its system C57 mice. As to the kind of experiment: Social preference procedure: compartment entries (proxy for locomotor stimulant effects), C57. As to conditions: 10 mg/kg IP, social novelty test, 10 mg/kg. It is filed as in vivo. On the procedure: as §5, §6, §7
Data set [11] relates to C57 mice. Put plainly: Sociability test, C57. It is filed as in vivo. On the procedure: as §5
A single sociability session occurred the day after the novelty preference test, where one compartment contained a wire mesh cup with a dummy mouse inside while the other compartment contained a male NIH Swiss stranger mouse inside the previously empty cup. […] The position of the dummy mouse (left or right compartment) remained the same for each subject as during the novelty test the day before, thereby counterbalancing the position of the stranger mouse across subjects. NIH Swiss stranger mice were similar in mass and appearance to the dummy PVC mice, and were housed separately from the experimental subjects (C57 and BTBR mice) in the colony facility. The first time the experimental subjects ever encountered the stranger mice was when they entered the compartment where they were contained. During this session, mice were weighed, administered the same injection as the day before, and returned to their home cage for a 30 min pretreatment period. Mice were then introduced into the T-junction and allowed to explore both preference compartments for 15 minutes. Sociability tests always occurred on Wednesdays or Thursdays to prevent any weekend testing.

“Also recorded” adds a separate entry of the source. Structures can show the parent of a compound that is named as a salt. Where two headings read alike, the source gives them in different places.

As for `CC(N)Cc1ccc2c(c1)OCO2` (racemic) [MDA, (±)-3,4-methylenedioxyamphetmaine], the “enantiomer with higher Cmax” value in data set [1] was “S-enantiomers were higher”.
Regarding `CNC(C)Cc1ccc(OC2OC(C(=O)O)C(O)C(O)C2O)c(OC)c1` (stereo not shown) [HMMA glucuronide], in [1], the “enantiomer with higher Cmax” value is “S-enantiomers were higher”.
For `CNC(C)Cc1ccc(OS(=O)(=O)O)c(OC)c1` (stereo not shown) [HMMA sulfate], the “enantiomer with higher Cmax” value in data set [1] was “Higher R-enantiomer Cmax”.
As to `CN[C@H](C)Cc1ccc2c(c1)OCO2` [R(−)-MDMA, (2R)-1-(1,3-benzodioxol-5-yl)-N-methylpropan-2-amine], the “effect on core temperature” value in data set [2] (30 mg/kg IP) was “no significant effects on core temperature were observed”; in [2] (various/increasing doses IP), “did not elicit significant effects on core temperature”; in data set [5] (10 mg/kg IP), “neither of the mixtures (e.g., exemplary composition 2(i)) nor pure R(−)-MDMA (e.g., exemplary composition 7) elicited significant effects on the core temperature”; in data set [5] (30 mg/kg IP), “neither of the mixtures nor pure R(−)-MDMA elicited significant effects on the core temperature”. In data set [3], the pro-social behaviour result is recorded as “promotes pro-social behaviour”. Further, the “novelty preference (time spent with the dummy mouse)” value in [4] (10.0 mg/kg IP) was “had no effects on locomotor activity (see FIG. 4) or novelty preference”; in data set [4] (various doses IP) it was “no systematic effects on novelty preference”. Also, the “social novelty preference (new stranger mouse vs familiar mouse)” value is “elicit significant effects on sociability” in [6] (3.0 mg/kg IP); “largest effect on social novelty preference” in data set [6] (10 mg/kg IP, 10 mg/kg); “strong preference for the new stranger mouse” in data set [6] (10 mg/kg IP, listed as R-MDMA, 10 mg/kg). Besides, the locomotor activity result is listed as “did elicit significant motor stimulation” in data set [7] (10 mg/kg), “did not elicit significant motor stimulation” in data set [7] (30 mg/kg), “no significant motor stimulation was observed” in [9] (10 mg/kg IP) and “no significant motor stimulation was observed” in data set [9] (30 mg/kg IP). The “compartment entries (locomotor stimulant effect)” value in [8] (3.0 mg/kg IP, social novelty test, 3 mg/kg) is “reduced entries; also recorded: suppresses the locomotor activity”; in data set [8] (all tested doses IP) it was “do not influence locomotor activity”; in [10], “did not increase compartment entries; also recorded: had no effects on locomotor activity”; in data set [10] (listed as R-(−) MDMA), “no stimulant effect on the motor activity”. Further, the “sociability (time spent with the stranger mouse vs dummy)” value in data set [11] (3.0 mg/kg IP) is reported as “elicit significant effects on sociability”; in data set [11] (10.0 mg/kg IP), “largest effect on sociability”.
Regarding `CN[C@@H](C)Cc1ccccc1` [S(+)-methamphetamine, S-methamphetamine], in [7], the “locomotor activity, strain comparison C57 vs BTBR” value is “no significant strain differences observed at any dose” and the “locomotor effects vs saline” value is recorded as “effects were not different from saline”.
For the compound `CN[C@@H](C)Cc1ccccc1` [methamphetamine], the “novelty preference (time spent with the dummy mouse)” value in data set [4] (various doses IP) is “no systematic effects on novelty preference”. Besides, the “social novelty preference (new stranger mouse vs familiar mouse)” value in data set [6] (various doses IP) is on record as “no systematic effects on social novelty preference”. Besides, in [11] (various doses IP), the “sociability (time spent with the stranger mouse vs dummy)” value is given as “no systematic effects on sociability”.
